Data from US20230077199A1, “PALMITOYL TETRAPEPTIDE-20 CONJUGATED NANOSILVER PARTICLE AND USE THEREOF” (priority 2021, published 2023).

System: B16F10 cells
Assay: Measurement of melanin production
Assay type: cell-based, murine
Conditions: B16F10, 200 nM, single treatment
Procedure: B16F10 are seeded in 24-well plates at the density of 8×10^4 cells/well and incubated for 24 hours at 37° C. with 5% CO2 atmosphere. After removing the used cell medium, the cells are treated with fresh cell culture medium (control group), 200 nM α-MSH (α-MSH group), combination of 200 nM α-MSH and various concentrations of palmitoyl tetrapeptide-20 conjugated nanosilver particle (α-MSH+sample group), and various concentrations of palmitoyl tetrapeptide-20 conjugated nanosilver particle (sample group), for 24 hours. After treatment, the treated solution in the well is removed with further incubation with fresh cell culture medium for 24 hours.
The cells are washed twice with PBS. The cells are transferred into a 1.5 mL microtube and centrifuged at 10,000 rpm for 5 minutes to obtain cell pellets. Add 100 μL of solution (1 N NaOH containing 10% DMSO) to the pellet for 60 minutes at 80° C. to dissolve intracellular melanin. Extract 80 μL of dissolved melanin and place in 96-well plates, and melanin contents of control group and treatment group are determined by measuring the absorbance at 405 nm. The assay is repeated for three independent experiments. The equation for calculating melanin content is described as following: Total melanin content (%)=(A405 nm treatment group/A405 nm control group)×100%.

α-melanocyte stimulating hormone [α-MSH]
induction of melanin synthesis: effectively induce melanin synthesis
